The source of these data is patent publication US20050282755A1, “Compositions having antimicrobial activity and uses thereof” (priority 2004, published 2005).

A word on the IC50: it is the concentration at which inhibition is half-maximal.

The subject of series [1] is E. coli K12 55099 (protease neg.). Conditions: 3 log or greater reduction in bacterial growth over 16 hours.
The subject of the next series is E. coli K12 TOP10. Conditions: 3 log or greater reduction in bacterial growth over 16 hours.
A further series has as its system P. acnes, ATCC 6919. As to the kind of experiment: Broth microdilution assay for P. acnes MBC, Table 4B. In kind it is cell-based, Propionibacterium acnes. As to conditions: 3 log or greater reduction in CFU/milliliter after 2.5 hours. An excerpt:
The strain of P. acnes was purchased from ATCC (strain #6919) (Manassas, Va.). […] HeLa cells were purchased from ATCC (CCL2). Tryptic soy broth (TSB), Brucella broth, reinforced Clostridial broth and agar were purchased from Becton & Dickinson (distributed by VWR, West Chester, Pa.). All plastic consumables were purchased from VWR (West Chester, Pa.). Chemicals were purchased from Sigma Aldrich (St. Louis, Mo.). DMEM, antibiotics and cell culture supplements were purchased from Invitrogen (Carlsbad, Calif.), fetal calf serum (FCS) was purchased from Hyclone (Logan, Utah). […] For propagation in liquid culture individual colonies were inoculated in […] of TSB broth for 16 hours at 37° C. under constant shaking. P. acnes was grown on Brucella broth blood agar plates (supplemented with 5% defibrinated sheep blood, […] hemin and […] vitamin K) under anaerobic conditions (GasPak system, Becton & Dickinson) for 96 hours at 37° C. For propagation in liquid culture individual colonies were inoculated in […] of reinforced Clostridial broth under anaerobic conditions for 72 hours at 37° C. […] The minimum bactericidal concentration (MBC) of peptide compositions for P. acnes was determined in a microdilution assay. […] The appearance of bacterial colonies was evaluated and documented.
(In general: In broth dilution the organism is exposed to a series of concentrations in liquid medium.)

Another series has as its system human red blood cells. In kind it is cell-based. Conditions: red cells of human, 100 Micromolar. As for the experimental part: Hemoglobin-release assays with human red blood cells (RBC) were performed to determine the hemolytic activity of granulysin peptides. Human RBCs (San Diego Blood Bank, San Diego, Calif.) were washed three times in PBS buffer (8 mM Na2HPO4, 1.5 mM KH2PO4, 140 mM NaCl and 2.7 mM KCl, pH 7.4), resuspended in PBS to the concentration of 5% (v/v). The RBC were then exposed to different peptide compositions at various concentrations (100-6.25 micromolar) and incubated at 37° C. for 60 minutes in a total volume of 120 microliters. Every experiment included a negative control without peptide and maximum control treated with 5% TX-100 for complete hemoglobin release. Samples were centrifuged for 1 minute at 13,000 g to remove debris and intact cells. The hemoglobin-containing supernatant was removed and transferred to a microwell plate. Hemoglobin release was quantified at A540 using a Versamax plate reader (Molecular Devices). The degree of hemolysis is expressed as percentage of hemolysis compared to the […], using the following formula: % hemolysis=(sample−neg. control)/(max. control−neg. control)×100.

The next series deals with Jurkat cells. In kind it is cell-based. Conditions: 16 h. As for the experimental part: Toxicity of peptide compositions for mammalian cells was determined by using a metabolic viability assay. For this assay 4×10^5 HeLa cells were seeded per well into a microwell plate (50 microliters volume). Jurkat cells also were utilized in separate experiments. The cells were incubated for 16 hours at 37° C. under mammalian cell culture conditions. Two fold serial dilutions for each peptide were prepared and added to the cells (final volume 100 microliters) and incubated for 16 hours at 37° C. For each dilution series control wells containing cells without peptide were included. The metabolic activity and viability of the cells were determined by using a commercially available assay (CellTiter96 assay, Promega Corp.). According to manufacturer's protocol 20 microliters of CellTiter reagent was added to each well and incubated at 37° C. for 1-4 hours. The CellTiter assay is a commercial version of the MTT assay, which measures the conversion of a tetrazolium […] into a colored formazan salt in metabolically active cells. The formation of the formazan product can be measured at 470 nm and is generally accepted as a measure of cellular viability. The cells were incubated at 37° C. and monitored for color development. The conversion of CellTiter reagent was measured at 470 nm using a Versamax plate reader (Molecular Devices). The viability of peptide treated cells is expressed as IC50 (i.e., concentration that leads to a 50% reduction of viability relative to the untreated control). Table 7A reports IC50 values for HeLa cells cultured in OptiMEM or 10% FBS when contacted with peptide compositions from Table 3, and Table 7B reports IC50 values for HeLa cells or Jurkat cells contacted with peptide compositions from Table 3.

Structures are written as SMILES. Values after ≈ are worked out from the molar mass of the structure shown. Where only a bound is given, the exact number is not on record here.

For the molecule `CSCC[C@@H](NC(=O)[C@@H](Cc1ccccc1)NC(=O)[C@@H](CC(N)=O)NC(=O)[C@@H](CCCNC(=N)N)NC(=O)[C@@H](CO)NC(=O)[C@@H](Cc1c[nH]c2ccccc12)NC(=O)[C@@H](CC(=O)O)NC(=O)[C@@H](CCCNC(=N)N)NC(=O)[C@@H](Cc1c[nH]c2ccccc12)NC(=O)[C@@H](CCCNC(=N)N)NC(=O)[C@@H](CO)NC(=O)[C@@H](CCCNC(=N)N)NC(=O)CNC(=O)[C@H](NC(=O)[C@@H](CCCNC(=N)N)NC(=O)[C@@H](CO)NC(=O)[C@H](NC(=O)[C@@H](CCCNC(=N)N)NC(=O)[C@H](NC(C)=O)[C@H](C)O)C(C)C)[C@H](C)O)C(=O)N[C@H](CCCNC(=N)N)C(=O)N[C@H](C)C(=O)N[C@H](C)C(N)=O` [Peptide 30, Ac-trvsrtgrsrwrdwsrnfmraa-NH2], the “Minimum inhibitory concentration (MIC) E. coli 55099” value in series [1] amounted to 2 µM (≈ 5.59 µg/mL). For the same molecule, the “Minimum inhibitory concentration (MIC) E. coli Top10” value with E. coli K12 TOP10 was determined as 4 µM (≈ 11.2 µg/mL). The “Minimum bactericidal concentration (MBC) for P. acnes” value in the series with P. acnes, ATCC 6919 was determined as 8 micromolar units. For the same molecule, the “Hemolytic effect on human red blood cells” value with human red blood cells is given as 0%. The IC50 in the series with Jurkat cells was greater than 100 µM.
